Patent US12441725B2, “ISO-citrate dehydrogenase (IDH) inhibitor” (ZHEJIANG METON PHARMACEUTICAL CO., LTD, priority 2019, dated 2025)
pIC50: −log10 of the molar value.

Assays:
IDH1 R132H = target: T1, IDH1 R132H (Homo sapiens, UniProt O75874, R132H); test: Biochemical assay for IDH inhibition (NADPH fluorescence), mutant IDH1 R132H; settings: 50 nM IDH1-R132H, 1 hour pre-incubation, in triplet
T1 construct: 6xHis
Text: (§1) The present disclosure provides a biochemical assay method for detecting the IDH inhibition and selectivity of the compounds by detecting IDH enzyme activity directly.
(§2) Wild-type IDH enzymes convert NADP^+ to NADPH when catalyzing the α-KG producing reaction. Mutant IDH enzymes convert NADPH to NADP^+ when catalyzing the D-2-HG producing reaction. So, the activity of wild-type and mutant IDH1/2 could be measured by monitoring NADPH level change as NADPH is fluorescent (Excitation 340 nm, Emission 460 nm). By monitoring the change of NADPH level in the reaction, the enzyme activity could be determined rapidly and efficiently and IC50 of a compound could also be assayed.
(§3) The test compounds are prepared into 50 mM stock solutions in DMSO and stored at −20° C. Each test compound stock is further diluted to obtain a 100× stock solution at a concentration of 400 μM, 200 μM, 100 μM, 50 μM, 25 μM, 12.5 μM, 6.25 μM and 3.125 μM, respectively, for the final use on the day of test (the concentration range of 100× stock solutions might be adjusted to cover the estimated IC50 of a specific test compound).
(§4) Inhibition of Mutant IDH1 (R132H or R132C):
(§5) To assay the enzymatic activity of mutant IDH1 proteins, 25 nM IDH1-R132C or 50 nM IDH1-R132H protein solutions are prepared in 20 mM Tris-HCl pH7.5, 150 mM NaCl, 10 mM MgCl2, 1 mM DTT, 0.05 mg/ml BSA and 1.33 mM α-KG. 148 μL 25 nM IDH1-R132C or 50 nM IDH1-R132H protein solutions are mixed with 2 μL DMSO (vehicle control for test compounds) or an above-mentioned 100× stock solution of a test compound and incubated for 1 hour at room temperature. Extra reactions containing 148 μL no-enzyme solution (20 mM Tris-HCl pH7.5, 150 mM NaCl, 10 mM MgCl2, 1 mM DTT, 0.05 mg/ml BSA and 1.33 mM α-KG) and 2 μL DMSO are also set up as background controls. Then each reaction is initiated by adding 50 μL 80 μM NADPH solution prepared in 20 mM Tris-HCl pH7.5, 150 mM NaCl, 10 mM MgCl2, 1 mM DTT and 0.05 mg/ml BSA. BioTek Synergy H1 Microplate reader (BioTek Instruments Inc., Winooski, U.S.) is employed to monitor the NADPH fluorescence (Excitation 340 nm, Emission 460 nm) every 42 seconds for 15 minutes. NADPH change rate is determined according to the linear phase of the fluorescence-time curve and results from the background control reactions are used as background subtraction to calculate the net NADPH change rates of other reactions. The net NADPH change rates from the vehicle control reactions are used as 100% enzymatic activity and thus the relative enzymatic activity of reactions with test compounds added could be determined. Then a dose-response curve is drawn for each test compound and the corresponding IC50 is calculated. The IC50 value is used to evaluate the inhibition and selectivity of each test compound on the IDH enzymatic activity.
(§6) The IDH inhibition activity of the compounds were assessed according to Test 2 of the Biological Assay section. The test for mutant IDH1 R132H and IDH1 R132C inhibition of each compound was carried out in triplet. As used in Table 5, “A” refers to an inhibitory activity against IDH1 R132H or IDH1 R132C with an IC50<0.1 μM; “B” refers to an inhibitory activity against IDH1 R132H or IDH1 R132C with an IC50 from 0.1 μM to 0.5 μM; “C” refers to an inhibitory activity against IDH1 R132H or IDH1 R132C with an IC50 from 0.5 μM to 1 μM; “D” refers to an inhibitory activity against IDH1 R132H or IDH1 R132C with an IC50>1 μM.

IDH1 R132C = target: T2, IDH1 R132C (Homo sapiens, UniProt O75874, R132C); test: Biochemical assay for IDH inhibition (NADPH fluorescence), mutant IDH1 R132C; settings: 25 nM IDH1-R132C, 1 hour pre-incubation, in triplet
T2 construct: 6xHis
T2 sequence (O75874 whole entry R132C): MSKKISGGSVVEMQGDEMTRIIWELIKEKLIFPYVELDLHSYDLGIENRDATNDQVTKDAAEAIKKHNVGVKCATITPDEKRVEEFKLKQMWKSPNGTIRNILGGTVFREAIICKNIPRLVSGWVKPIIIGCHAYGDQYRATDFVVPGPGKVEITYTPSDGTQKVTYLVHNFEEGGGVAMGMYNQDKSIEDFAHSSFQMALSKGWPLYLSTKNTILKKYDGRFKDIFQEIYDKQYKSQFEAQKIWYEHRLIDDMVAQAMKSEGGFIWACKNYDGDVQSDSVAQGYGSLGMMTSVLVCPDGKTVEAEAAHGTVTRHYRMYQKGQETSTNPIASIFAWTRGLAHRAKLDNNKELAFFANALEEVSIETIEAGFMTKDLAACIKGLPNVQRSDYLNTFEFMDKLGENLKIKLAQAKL
Text: as §1, §2, §3, §4, §5, §6

[1] = target: T3, IDH (endogenous IDH1 R132C) in HT1080 cell (Homo sapiens, UniProt O75874, R132C); test: Cell-based assay for IDH inhibition (decrease of D-2-HG) in HT1080 cells; settings: human fibrosarcoma cell line HT1080, 16 hours treatment, D-2-HG by LC-MS, in triplet
T3 construct: which harbor endogenous heterozygous IDH1 R132C and R132H mutation respectively and accumulate D-2-HG
T3 sequence (O75874 2-414 R132C): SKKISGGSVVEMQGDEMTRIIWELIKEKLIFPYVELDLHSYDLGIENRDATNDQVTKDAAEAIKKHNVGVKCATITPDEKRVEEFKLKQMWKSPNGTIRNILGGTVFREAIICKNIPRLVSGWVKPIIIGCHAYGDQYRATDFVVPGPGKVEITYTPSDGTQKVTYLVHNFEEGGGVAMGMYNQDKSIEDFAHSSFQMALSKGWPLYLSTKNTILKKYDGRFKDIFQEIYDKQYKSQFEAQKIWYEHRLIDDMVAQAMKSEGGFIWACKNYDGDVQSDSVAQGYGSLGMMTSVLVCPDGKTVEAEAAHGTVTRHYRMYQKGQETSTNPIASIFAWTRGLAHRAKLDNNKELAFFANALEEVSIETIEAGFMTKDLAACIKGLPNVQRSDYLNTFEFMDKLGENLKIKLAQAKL
Text: The present disclosure also provides a cell-based method for assaying IDH inhibition and selectivity of the compounds in human fibrosarcoma cell line HT1080 and cholangiocarcinoma cell line HCCC 9810, which harbor endogenous heterozygous IDH1 R132C and R132H mutation respectively and accumulate D-2-HG. Tumor -derived IDH mutant lost its normal activity of producing α-KG, and gained a new activity of producing D-2-HG. D-2-HG is a metabolite specifically elevated in tumor cells expressing mutant IDH1 or IDH2 proteins. When treating such mutant IDH-expressing tumor cells with an effective IDH inhibitor, the synthesis of D-2-HG is blocked, and D-2-HG concentration is decreased by the oxidation reaction catalyzed by the endogenous D-2-HG dehydrogenase.
To perform a cell-based IDH inhibition assay, HT1080 and HCCC 9810 cells (or other cell lines harboring different IDH mutations) are cultured in DMEM supplemented with 10% FBS. The cells are treated with compounds of present disclosure at various different concentrations. 16 hours after the treatment, culture medium supernatants are removed and cell metabolites are extracted by 40% methanol and 40% acetonitrile in water (pre-chilled under −80° C.) at 4° C. for 1 hour. The extract supernatants are collected and cell debris are removed via high speed centrifugation. The resulting metabolite extracts are analyzed on an Agilent LC-MS system (model: 1290-6470) for 2-HG and glutamate concentration. A HILIC-Z column (2.1 mm×100 mm, […]) is employed on HPLC. Mobile phase A is 15 mM CH3COONH4 and 0.3% NH3·H2O in water. Mobile phase B is 15 mM CH3COONH4 and 0.3% NH3·H2O in 90% MeCN/10% H2O solvent. An 19% solvent A and 81% solvent B isocratic gradient method is used at a flow rate of 0.3 ml/min. D-2-HG is ionized under negative ion spray mode and detected through the multiple-reaction monitoring of a mass transition pair at m/z=147.0/128.9 and 147.0/85.1. Glutamate is ionized under ion spray mode and detected on negative polarity multiple-reaction monitoring of a mass transition pair at m/z=146/102 and 146/128 and its level is used to normalize 2-HG concentration. The activity of cellular mutant IDH proteins in the presence of each test compound at different concentrations can be represented by relative D-2-HG concentration to negative control samples (i.e., cells are treated with DMSO only), and the IC50 value could be determined to evaluate the inhibition and selectivity of each test compound on the IDH enzymatic activity.
The IDH inhibition activity of the compounds were assessed in human fibrosarcoma cell line HIT1080 according to Test 3 of the Biological Assay section. The test for IDH inhibition of each compound was carried out in triplet. As used in Table 6, “A” refers to an IDH inhibitory activity with an IC50<0.1 μM; “B” refers to an IDH inhibitory activity with an IC50 from 0.1 μM to 0.5 μM; “C” refers to an IDH inhibitory activity with an IC50 from 0.5 μM to 1 μM; “D” refers to an IDH inhibitory activity with an IC50>1 μM.

T1 sequence (O75874 whole entry R132H): as the sequence (O75874 whole entry R132C) above, with C132H counted along it

CCN1Cc2c(ccnc2N[C@@H](C)c2cc(F)c(-c3cc(C(C)(C)C)c(OC)cn3)cc2F)C1=O [Compound 150, (S)-4-((1-(4-(4-(tert-butyl)-5-methoxypyridin-2-yl)-2,5-difluorophenyl)ethyl)amino)-2-ethyl-2,3-dihydro-1H-pyrrolo[3,4-c]pyridin-1-one]
pIC50 (IDH1 R132H): > 7.00 | pIC50 (IDH1 R132C): > 7.00 | pIC50 [1]: > 7.00

CCN1Cc2c(ccnc2N[C@@H](C)c2cc(F)c(-c3ccnc(C(F)(F)F)c3)cc2F)C1=O [Compound 88, (S)-4-((1-(2,5-difluoro-4-(2-(trifluoromethyl)pyridin-4-yl)phenyl)ethyl)amino)-2-ethyl-2,3-dihydro-1H-pyrrolo[3,4-c]pyridin-1-one]
pIC50 (IDH1 R132H): 6.00 to 6.30 | pIC50 (IDH1 R132C): < 6.00 | pIC50 [1]: < 6.00

CCN1Cc2c(ccnc2N[C@@H](C)c2cc(F)c(-c3ccnc(C4CC(F)(F)C4)c3)cc2F)C1=O [Compound 97, (S)-4-((1-(4-(2-(3,3-difluorocyclobutyl)pyridin-4-yl)-2,5-difluorophenyl)ethyl)amino)-2-ethyl-2,3-dihydro-1H-pyrrolo[3,4-c]pyridin-1-one]
pIC50 (IDH1 R132H): 6.30 to 7.00 | pIC50 (IDH1 R132C): 6.00 to 6.30 | pIC50 [1]: 6.30 to 7.00

CCN1Cc2c(ccnc2N[C@@H](C)c2cc(F)c(-c3cc(C4(C(F)(F)F)CC4)ccn3)cc2F)C1=O [Compound 124, (S)-4-((1-(2,5-difluoro-4-(4-(1-(trifluoromethyl)cyclopropyl)pyridin-2-yl)phenyl)ethyl)amino)-2-ethyl-2,3-dihydro-1H-pyrrolo[3,4-c]pyridin-1-one]
pIC50 (IDH1 R132H): > 7.00 | pIC50 (IDH1 R132C): > 7.00 | pIC50 [1]: > 7.00

CCN1Cc2c(ccnc2N[C@@H](C)c2cc(F)c(-c3ccnc(C(C)(C)C(F)(F)F)c3)cc2F)C1=O [Compound 105, (S)-4-((1-(2,5-difluoro-4-(2-(1,1,1-trifluoro-2-methylpropan-2-yl)pyridin-4-yl)phenyl)ethyl)amino)-2-ethyl-2,3-dihydro-1H-pyrrolo[3,4-c]pyridin-1-one]
pIC50 (IDH1 R132H): > 7.00 | pIC50 (IDH1 R132C): > 7.00 | pIC50 [1]: > 7.00

CCN1Cc2c(ccnc2N[C@@H](C)c2cc(F)c(-c3ccnc(C4CC4)c3)cc2F)C1=O [Compound 90, (S)-4-((1-(4-(2-cyclopropylpyridin-4-yl)-2,5-difluorophenyl)ethyl)amino)-2-ethyl-2,3-dihydro-1H-pyrrolo[3,4-c]pyridin-1-one]
pIC50 (IDH1 R132H): 6.30 to 7.00 | pIC50 (IDH1 R132C): < 6.00 | pIC50 [1]: 6.00 to 6.30

CCN1Cc2c(ccnc2N[C@@H](C)c2ccc(Nc3ccccc3)c(F)c2)C1=O [Compound 32, (S)-2-ethyl-4-((1-(3-fluoro-4-(phenylamino)phenyl)ethyl)amino)-2,3-dihydro-1H-pyrrolo[3,4-c]pyridin-1-one]
pIC50 (IDH1 R132H): < 6.00 | pIC50 (IDH1 R132C): < 6.00 | pIC50 [1]: < 6.00

CCN1Cc2c(ccnc2N[C@@H](C)c2ccc(Oc3ccc4c(ccn4CCO)c3)c(F)c2)C1=O [Compound 10, (S)-2-ethyl-4-((1-(3-fluoro-4-((1-(2-hydroxyethyl)-1H-indol-5-yl)oxy)phenyl)ethyl)amino)-2,3-dihydro-1H-pyrrolo[3,4-c]pyridin-1-one]
pIC50 (IDH1 R132H): 6.00 to 6.30 | pIC50 (IDH1 R132C): < 6.00 | pIC50 [1]: < 6.00

CCN1Cc2c(ccnc2N[C@@H](C)c2cc(C(C)(C)C)ncc2F)C1=O [Compound 63, (S)-4-((1-(2-(tert-butyl)-5-fluoropyridin-4-yl)ethyl)amino)-2-ethyl-2,3-dihydro-1H-pyrrolo[3,4-c]pyridin-1-one]
pIC50 (IDH1 R132H): < 6.00 | pIC50 (IDH1 R132C): < 6.00 | pIC50 [1]: < 6.00

CCN1Cc2c(ccnc2N[C@@H](C)c2cc(F)c(-c3cc(C(C)(C)F)ncc3OC)cc2F)C1=O [Compound 132, (S)-4-((1-(2,5-difluoro-4-(2-(2-fluoropropan-2-yl)-5-methoxypyridin-4-yl)phenyl)ethyl)amino)-2-ethyl-2,3-dihydro-1H-pyrrolo[3,4-c]pyridin-1-one]
pIC50 (IDH1 R132H): > 7.00 | pIC50 (IDH1 R132C): > 7.00 | pIC50 [1]: 6.30 to 7.00

CCN1Cc2c(ccnc2N[C@@H](C)c2cc(F)c(-c3cc(C#N)ccn3)cc2F)C1=O [Compound 114, (S)-2-(4-(1-((2-ethyl-1-oxo-2,3-dihydro-1H-pyrrolo[3,4-c]pyridin-4-yl)amino)ethyl)-2,5-difluorophenyl)isonicotinonitrile]
pIC50 (IDH1 R132H): < 6.00 | pIC50 (IDH1 R132C): < 6.00 | pIC50 [1]: 6.00 to 6.30

CCN1Cc2c(ccnc2N[C@@H](C)c2ccc(-c3ccnc(C(O)C4CC4)c3)c(F)c2)C1=O (stereo partly drawn) [Compound 85, 4-(((1S)-1-(4-(2-(cyclopropyl(hydroxy)methyl)pyridin-4-yl)-3-fluorophenyl)ethyl)amino)-2-ethyl-2,3-dihydro-1H-pyrrolo[3,4-c]pyridin-1-one]
pIC50 (IDH1 R132H): < 6.00 | pIC50 (IDH1 R132C): < 6.00 | pIC50 [1]: < 6.00

CCN1Cc2c(ccnc2N[C@@H](C)c2cc(F)c(-c3cc(C(C)(C)F)c(F)c(C)n3)cc2F)C1=O [Compound 133, (S)-4-((1-(2,5-difluoro-4-(5-fluoro-4-(2-fluoropropan-2-yl)-6-methylpyridin-2-yl)phenyl)ethyl)amino)-2-ethyl-2,3-dihydro-1H-pyrrolo[3,4-c]pyridin-1-one]
pIC50 (IDH1 R132H): > 7.00 | pIC50 (IDH1 R132C): > 7.00 | pIC50 [1]: > 7.00
